This is an account of results in the METLIN SMRT retention time set (Domingo-Almenara et al. 2019).

The structures appear in SMILES notation.

The data set can be described thus: gradient 5% acetonitrile 3 min, to 50% in 2 min, to 85% in 15 min, held 3 min, 100 µL/min. Particulars: column: Zorbax Extend-C18 2.1 x 50 mm; eluents: water / acetonitrile, 0.1% formic acid. In outline: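 Using water and acetonitrile that each contained 0.1% formic acid, mixtures of ~100 pure standards were separated at 100 μL/min on a Zorbax Extend-C18 column (2.1 × 50 mm, 1.8 μm). The HPLC fed a quadrupole time-of-flight mass spectrometer working in positive and negative ionization mode, with dead and dwell volumes of 40 μL and 900 μL. Data were acquired over 3 months. Retention time was read from computationally picked adduct peaks after manual inspection of each.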
`Cc1cc(N(C)C)n2nc(CN3CCN(c4ccccc4C)CC3)nc2n1` returned an RP-LC retention time of 633 s.

Regarding `Cc1ccc(-c2csc(NC(=O)c3sc(-c4ccccc4)nc3C)n2)cc1`, the RP-LC retention time was found to be 1300 s.

`CC(C)n1cnc2cc(CNC(=O)c3cc(F)ccc3Cl)ccc21` showed an RP-LC retention time of 638 s.

`CCCn1c(=O)c(N2CCC(NC(=O)NC3CCCCC3)CC2)nc2ccccc21` showed an RP-LC retention time of 953 s.

Consider `CC(C)NC(=O)c1nc(-c2ccnc(N3CCOCC3)c2)no1`, for which the RP-LC retention time worked out at 671 s.

As to `Cc1cccc(-c2nc(NCc3ccncc3)ncc2C(=O)O)c1`, the RP-LC retention time amounted to 587 s.

On to `CCn1cc(CN(C)C(=O)C2N(C(C)C)C(=O)C23CCCC3)c(C)n1` (stereo not drawn), for which the RP-LC retention time came out at 612 s.

As for `CCc1cc(=O)n(CC(=O)N(C)c2cccc(C)c2)c(-c2ccccc2)n1`, the RP-LC retention time was 1110 s.

Turning to `CCN1CCn2cc(S(=O)(=O)Nc3ccccc3Cl)cc2C1=O`, the RP-LC retention time was 706 s.

Compound `COc1ccc(-c2noc(C3CC(=O)N(c4ccc(Cl)cc4)C3)n2)c(OC)c1` (stereo not drawn) displayed an RP-LC retention time of 928 s.

Turning to `O=C(CCS(=O)(=O)c1ccccc1)NCc1ccsc1`, the RP-LC retention time came out at 671 s.

Regarding `O=S(=O)(c1ccc2nc(N3CCN(c4ccccc4F)CC3)ccc2c1)N1CCCCC1`, the RP-LC retention time amounted to 1160 s.

`CCn1cc(S(=O)(=O)N2C[C@H]3CN(S(=O)(=O)c4cccc(F)c4)C[C@@H](C2)O3)cn1` registered an RP-LC retention time of 815 s.

`CC1CCN(CCNS(=O)(=O)c2ccccc2-c2nc(-c3cccc(F)c3)no2)CC1`: the RP-LC retention time was determined as 755 s.

For `Cc1ccc(NC(=O)Cn2ccc3sccc3c2=O)cc1Cl`, the RP-LC retention time stood at 830 s.

In turn, `COc1cccc(CNC(=O)Nc2cc3c(cc2Oc2ccccc2)n(C)c(=O)n3C)c1` gave an RP-LC retention time of 840 s.

Consider `CN(CCCNC(=O)c1ccc2c(c1)N(C)C(=O)C1CCCCN21)Cc1ccccc1` (stereo not drawn), for which the RP-LC retention time worked out at 643 s.

In turn, `COc1ccc(-c2nnc(N3CCC(C(=O)Nc4ccc(OC)cc4OC)CC3)o2)cc1` came in with an RP-LC retention time of 837 s.

`CC1(C)C(=O)N(CC(=O)Nc2ccc3c(c2)OCO3)c2ccccc21` registered an RP-LC retention time of 823 s.

`Cc1ccc(NC(=O)Cc2nnc3ccc(-c4nc(C)no4)cn23)c(C)c1` displayed an RP-LC retention time of 781 s.

Consider `CCCC(CCC)C(=O)N1CCCN(C2=NS(=O)(=O)C(c3ccc(F)cc3)=C2C)CC1`, for which the RP-LC retention time was determined as 972 s.

Turning to `COc1ccc(CNC(=O)c2ccc(CN3CC(=O)N4CCCCC4C3=O)cc2)cc1` (stereo not drawn), the RP-LC retention time turned out to be 683 s.

Compound `COc1ccc(N2CC(c3nc(-c4ccc(Br)cc4)no3)CC2=O)c(OC)c1` (stereo not drawn) registered an RP-LC retention time of 1040 s.

For the compound `Cc1ccc(CNC(=O)c2sc(-c3cn(C)c4ncccc34)nc2C)cc1`, the RP-LC retention time was 784 s.

`COc1ccc2c(c1)C1(CCN(C(=O)Nc3ccccc3F)C1)C(=O)N2` (stereo not drawn) had an RP-LC retention time of 701 s.

`COc1ccc(Cl)cc1C(=O)Nc1ccc(-c2cn3ccc(C)nc3n2)cc1` showed an RP-LC retention time of 727 s.

`CCOCc1nc(C2CCCN(C(=O)NC3CCCCC3)C2)no1` (stereo not drawn) came in with an RP-LC retention time of 804 s.

Consider `COC(=O)c1cc(S(=O)(=O)N2CCCC2C(=O)NCc2ccccn2)cn1C` (stereo not drawn), for which the RP-LC retention time was 590 s.

`O=C(Nc1ccccc1NC(=O)c1ccc(Br)o1)c1cccnc1` displayed an RP-LC retention time of 669 s.

For `COc1ccc(OC)c(CNC(=O)C2CCN(Cc3cn(C)c4ccc(OC)cc34)CC2)c1`, the RP-LC retention time was determined as 682 s.

Turning to `Cc1nnc(NC(=O)c2ccc3c(c2)OCO3)s1`, the RP-LC retention time was 646 s.

Take `COC(=O)C1=CN(c2ccc(C)c(F)c2)c2ccc(F)cc2S1(=O)=O`: the RP-LC retention time turned out to be 920 s.

`O=C(CCc1nc(-c2ccc(N3CCCC3)cc2)no1)N1CCN(c2ncccn2)CC1` came in with an RP-LC retention time of 957 s.
